Data set [1] is described as follows: Preclinical pharmacokinetics, oral once daily. Particulars: in vivo, total drug concentrations; for AUC(0-t): read-out: Mean AUC0-24. From the text: The pharmacokinetic results are shown below in Table 1.
Another data set has as its system ESR1 (Y537S) PDX. In words: ESR1 (Y537S) PDX model tumor growth inhibition. The data set is classed as in vivo. The conditions noted are these: for tumor growth inhibition (TGI): ESR1 (Y537S) PDX, 28 days.
Another data set concerns the target T1, ERα (Homo sapiens, UniProt P03372).
T1 construct: robustly degrades ER in ER-positive breast cancer cell lines; endogenous in cells; host or cells: MCF7, T47D (cell culture); MCF7 and tamoxifen-resistant MCF7 xenograft tumours in mice
T1 sequence (P03372 1-595): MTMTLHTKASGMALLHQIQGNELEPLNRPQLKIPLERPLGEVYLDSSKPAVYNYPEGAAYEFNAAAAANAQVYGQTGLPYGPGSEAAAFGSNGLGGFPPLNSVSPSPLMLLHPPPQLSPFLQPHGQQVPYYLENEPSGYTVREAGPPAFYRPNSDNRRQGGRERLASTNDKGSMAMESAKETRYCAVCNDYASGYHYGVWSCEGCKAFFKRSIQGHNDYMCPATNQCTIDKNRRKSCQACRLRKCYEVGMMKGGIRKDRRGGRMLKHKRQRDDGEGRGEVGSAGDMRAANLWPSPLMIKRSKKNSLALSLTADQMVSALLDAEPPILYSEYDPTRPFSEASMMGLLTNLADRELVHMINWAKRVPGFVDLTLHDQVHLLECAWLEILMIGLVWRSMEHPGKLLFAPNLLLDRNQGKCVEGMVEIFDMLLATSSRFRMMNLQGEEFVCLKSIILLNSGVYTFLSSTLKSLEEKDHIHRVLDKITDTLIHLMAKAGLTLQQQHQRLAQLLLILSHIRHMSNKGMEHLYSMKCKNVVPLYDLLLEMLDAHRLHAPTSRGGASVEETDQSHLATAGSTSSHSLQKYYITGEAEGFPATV
Put plainly: ERα levels in tamoxifen-resistant MCF7 xenografts (immunoblot). Particulars: tamoxifen-resistant MCF7, 30 mg/kg, study termination. It is filed as in vivo, Nu/Nu mice. On the procedure: At study termination, the tumors were removed from the mice, and ERα levels were determined by immunoblotting the tumor homogenates. […] ERα levels from the various compound arms were compared to vehicle-treated animals by analyzing the tumor lysates on separate immunoblots (graphs in FIG. 10, FIG. 11, and FIG. 12 depict data from individual immunoblots) and the average ERα levels with standard deviation is shown.
Sampling: Tumors were measured twice weekly. Terminal sacrifice was ˜18 hr after last dose; tumors were harvested, divided, and flash frozen. ERα levels were determined by immunoblotting (see Appendix 1 for details).
Flash frozen tumors were removed from −80° C. storage and placed on dry ice. RIPA lysis buffer and Halt protease inhibitors were used at 400 μl per tumor sample. A steel ball (5 mm) was placed in each sample for tissue disruption. Samples were lysed with TissueLyzer at 24 Hz for 4 minutes. The homogenization was stopped half way through the process and the block flipped over for the duration of the process. […] Lysates were then measured for total protein concentration by BCA (per manufacturer's protocol). […]
Protein was transferred from gels to nitrocellulose with Bio-Rad Turbo on default setting. […] The blots were cut so that beta-actin and ERα can be detected from the same lane/sample. […]

Another data set relates to T47D ESR1 Y537S cells. In words: Live-cell imaging growth studies and EC50 for growth inhibition, T47D ESR1 Y537S. It is filed as cell-based. Particulars: Homo sapiens, read-out: Approximate Half-maximal Effective Concentration (EC50) for growth inhibition. Here is the method: MCF7, T47D, T47D ESR1 Y537S or T47D ESR1 D538G cells were seeded at 2×10^5 density per well in 6-well tissue culture-treated plates in DMEM/F12/10% FBS (2 mL total volume). […] The plate was then placed in the Incucyte® S3 Live-Cell Analysis System and images were acquired every 4 hours for a total of 5 days (120 hours). Data were analyzed using the Incucyte® Software v2020C which quantified cell surface area coverage as confluence values. Relative growth was calculated for all timepoints for all growth conditions relative to the confluence value observed for the control at 120 hours. Graphing and statistical analyses were performed using Graphpad Prism (GraphPad Software).

Data set [2] relates to cell lines expressing ESR1 variants Y537S and D538G. In words: Growth of cell lines expressing ESR1 variants. It is filed as cell-based.

Read-outs that look alike come from different tables or passages of the source.

As usually defined, the Cmax is the peak of the concentration-time curve.

As for `O=C1CC[C@H](N2Cc3cc(N4CCN(CC5CCN(c6ccc([C@@H]7c8ccc(O)cc8CC[C@@H]7c7ccccc7)cc6)CC5)CC4)ccc3C2=O)C(=O)N1` [Compound (I-c), (3S)-3-[5-[4-[[1-[4-[(1R,2S)-6-hydroxy-2-phenyl-tetralin-1-yl]phenyl]-4-piperidyl]methyl]piperazin-1-yl]-1-oxo-isoindolin-2-yl]piperidine-2,6-dione], the Cmax in data set [1] (3 mg/kg oral once daily) was determined as 84 ng/mL; in data set [1] (10 mg/kg oral once daily), 312 ng/mL; in data set [1] (30 mg/kg oral, single dose) it was 962 ng/mL. The AUC(0-t) in data set [1] (3 mg/kg oral once daily) is 658 ng·h/mL; in data set [1] (10 mg/kg oral once daily), 2540 ng·h/mL; in data set [1] (30 mg/kg oral, single dose), 5720 ng·h/mL. Also, the “tumor growth inhibition (TGI)” value was determined as 99% in the data set with ESR1 (Y537S) PDX (10 mg/kg oral once daily) and 106% in the data set on ESR1 (Y537S) PDX (30 mg/kg oral once daily). Further, in the data set on ESR1 (Y537S) PDX (ESR1 Y537S hormone-independent PDX, 10 mg/kg), the tumor growth result was “completely inhibited growth”. For the same molecule, on ERα, the “reduction of tumor ERα levels vs vehicle” value amounted to 73%. Also, the EC50 in the data set with T47D ESR1 Y537S cells turned out to be 50 nM. In addition, in data set [2], the “growth of cell lines expressing ESR1 variants Y537S and D538G” value is on record as “inhibits growth”.
